According to PubChem BioAssay AID2060508 (Molecular Pharmacology Branch, DTP, NCI, 2025):
Values joined by “and” are separate entries in the source; they are usually repeats but may differ in a detail not shown here. Equal entries are not always repeated.

Tested on: 454973-116-R2-J3-PDC spheroids, viability, % test/control
Assay: Anticancer human tumor 454973-116-R2-J3-PDC patient-derived pancreatic carcinoma cell line growth inhibition [GQUAD]
Conditions: spheroids with HUVEC and MSC; for viability, T/C: stronger effect = lower value; for IC50: curve of compound
Excerpt: DNA G-quadruplex Stabilizer Agents in Combinations in Complex Spheroids
A high-throughput screen of multi-cell type tumor spheroids was designed to identify active combinations of DNA G-quadruplex stabilizer agents and targeted small molecules. Complex spheroids include a stromal component modeled by human endothelial cells (HUVEC) and fibroblasts modeled by human mesenchymal stem cells (MSCs). The concentration ranges selected for each drug and investigational agent were based upon clinically achievable concentrations if the clinical Cmax of the agent was known.
Compounds. The drugs and investigational agents: pidnarulex (CX-5461; NSC782164), APTO-253 (NSC789042), BRACO-19 (NSC847499), peposertib (NSC802822), ceralasertib (NSC780249), elimusertib (NSC800525), camonsertib (NSC841442), AZD-1390 (NSC803789), olaparib (NSC753686), talazoparib (NSC767125), ART-558 (NSC835418), sotorasib (NSC818433), MRTX-1133 (NSC836407), SN-38 (NSC673596), topotecan (NSC609699), etoposide (NSC141540), doxorubicin (NSC123127), gemcitabine (NSC613327), 5-fluorouracil (NSC19893), paclitaxel (NSC125973), vemurafenib (NSC761431), panobinostat (NSC761190), R-306465 (JNJ-16241199; NSC773264), adavosertib (NSC754352), TP-3654 (NSC805149), carboplatin (NSC241240), KSQ-4279 (NSC840948), and staurosporine (NSC755774) were obtained from the National Cancer Institute (NCI) Developmental Therapeutics Program Chemical Repository (34). The FDA-approved anticancer drug set is available from the NCI Developmental Therapeutics Program. […] The stock solutions were prepared in dimethyl sulfoxide (DMSO, Sigma-Aldrich, St. Louis, MO, cat. D2650) at 800-fold the tested concentration and stored at -70 degrees C prior to their use. All drugs and investigational agents were tested over a range starting from a high concentration at or near the clinical Cmax and decreasing in half-log increments. If the clinical Cmax for an agent had not been determined, the highest concentration tested was 10 microM.
2.3 Cell Culture. All cells were maintained in an incubator at 37 degrees C and 5% CO2 with 95% humidity. The PDC lines were cultured according to standard operating procedures established by the NCI PDMR. All PDCs were thawed and cultured in Matrigel-coated flasks prepared with a working solution of 1X Ham's F-12 nutrient mix, without supplementation (Invitrogen, cat. 11765054), 100 U/mL penicillin-streptomycin (Invitrogen, cat. 15140122), and 2.5% Matrigel (Corning Inc., cat. 354248) for the first three passages. The 857933-349-R-J2-PDC line was cultured in 6C/Colon 1B media, which includes advanced DMEM/F-12 (Thermo Fisher Scientific, cat. 12634028), 10 mM HEPES (Thermo Fisher Scientific, cat. 15630080), 1X GlutaMAX supplement (Thermo Fisher Scientific, cat. 35050061), 0.1 mg/mL primocin (InvivoGen, cat. ant-pm-2), 10% defined fetal bovine serum, heat inactivated (HyClone Laboratories Inc., cat. SH30070.03HI), 50% L-WRN conditioned media (ATCC, cat. CRL-3276), 1.25 mM N-Acetyl-L-cysteine (Sigma-Aldrich, cat. A9165), 10 mM nicotinamide (Sigma-Aldrich, cat. N0636), 1X B-27 supplement (Thermo Fisher Scientific, cat. 17504044), 1X N-2 supplement (Thermo Fisher Scientific, cat. 17502048), 10 microM Y-27632 dihydrochloride (Tocris Bioscience, cat. 1254), and 50 ng/mL human EGF recombinant protein (Thermo Fisher Scientific, cat. PHG0311). The 485176-168-R4-J1-PDC line was cultured in Panc media, which includes all 6C/Colon 1B media components plus 100 ng/mL human FGF-10 (Thermo Fisher Scientific, cat. 100-26), 500 nM SB-431542 (Selleckchem, cat. S1067), and gastrin (Tocris, cat. 3006).
[…]
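Note: spheroids exposed to compounds for seven days.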

COc1cc(C2c3cc4c(cc3C(OC3OC5COC(C)OC5C(O)C3O)C3COC(=O)C23)OCO4)cc(OC)c1O (stereo not given)
viability, T/C (compound 0.0316 µM): 106% and 98.1% and 115% | viability, T/C (compound 0.1 µM): 94.7% and 92.3% and 78.7% | viability, T/C (compound 0.316 µM): 85.6% and 89.4% and 87.1% | viability, T/C (compound 1 µM): 55.2% and 52.1% and 61.5% | viability, T/C (compound 3.16 µM): 23.5% and 22.8% and 25.1% | viability, T/C (compound 10 µM): 15.8% and 12.7% and 15.5% | IC50: 1170 nM and 1130 nM and 1390 nM

COc1ncnc(C2CC2)c1-c1ncc2cnn(Cc3ccc(-c4nc(C(F)(F)F)cn4C(C)C)cc3)c2n1
viability, T/C (compound 0.0316 µM): 93.7% and 116% and 113% | viability, T/C (compound 0.1 µM): 103% (2×) and 110% | viability, T/C (compound 0.316 µM): 94.6% and 105% and 101% | viability, T/C (compound 1 µM): 94.7% and 98.2% and 94.5% | viability, T/C (compound 3.16 µM): 114% and 109% and 97.9% | viability, T/C (compound 10 µM): 99.9% and 102% (2×) | IC50: > 10000 nM

Nc1ccn(C2OC(CO)C(O)C2(F)F)c(=O)n1 (stereo not given)
viability, T/C (compound 0.0316 µM): 19.1% and 19% and 20.8% | viability, T/C (compound 0.1 µM): 16.1% and 13.3% and 15.5% | viability, T/C (compound 0.316 µM): 15.3% and 17.1% and 18.8% | viability, T/C (compound 1 µM): 16.3% and 16.7% and 16.6% | viability, T/C (compound 3.16 µM): 17.3% and 14% and 17.2% | viability, T/C (compound 10 µM): 16.6% and 13.6% and 14.2% | IC50: < 31.6 nM

CC1COCCN1c1cc(-c2ccnn2C)c2ccnc(-c3ccn[nH]3)c2n1 (stereo not given)
viability, T/C (compound 0.0316 µM): 93.7% and 96.6% and 80.7% | viability, T/C (compound 0.1 µM): 60.6% and 68% and 55.6% | viability, T/C (compound 0.316 µM): 29.6% and 31.4% and 26.2% | viability, T/C (compound 1 µM): 26.3% and 24% and 18.6% | viability, T/C (compound 3.16 µM): 26.5% and 25.6% and 19.4% | viability, T/C (compound 10 µM): 24.5% and 24% and 22.7% | IC50: 148 nM and 176 nM and 124 nM

CCCS(=O)(=O)Nc1ccc(F)c(C(=O)c2c[nH]c3ncc(-c4ccc(Cl)cc4)cc23)c1F
viability, T/C (compound 0.0316 µM): 105% and 121% and 109% | viability, T/C (compound 0.1 µM): 108% and 104% and 96.3% | viability, T/C (compound 0.316 µM): 120% and 112% and 102% | viability, T/C (compound 1 µM): 111% and 113% and 112% | viability, T/C (compound 3.16 µM): 115% and 99.8% and 108% | viability, T/C (compound 10 µM): 7.3% and 7.67% and 14.8% | IC50: 6250 nM and 5890 nM and 6400 nM
